Laboratory results: patent publication US12509452B2, “Substituted-isoxazoline-containing aromatic compound, preparation method therefor, herbicidal composition and use thereof” (QINGDAO KINGAGROOT CHEMICAL COMPOUND CO., LTD., priority 2019, dated 2025)

Experiments:
Test in all cases: weeding effect in post-emergence stage
Type in all cases: in vivo
Rorippa indica = tested on: Rorippa indica
Text: (§1) The activity level criteria for plant damage (i.e., growth control rate) are as follows: • Level 5: growth control rate is above 85%; • Level 4: growth control rate is greater than or equal to 60% and less than 85%; • Level 3: growth control rate is greater than or equal to 40% and less than 60%; • Level 2: growth control rate is greater than or equal to 20% and less than 40%; • Level 1: growth control rate is greater than or equal to 5% and less than 20%; • Level 0: growth control rate is less than 5%.
(§2) The above growth control rates are fresh weight control rates.
(§3) Experiment on weeding effect in post-emergence stage:
(§4) Monocotyledonous and dicotyledonous weed seeds (Descurainia sophia, Capsella bursa-pastoris, Abutilon theophrasti, Galium aparine, Stellaria media, Lithospermum arvense, Rorippa indica, Alopecurus aequalis, Alopecurus japonicus, Beckmannia syzigachne, Sclerochloa dura, Conyza Canadensis, Phleum paniculatum, Veronica didyma Tenore, Bromus japonicus, Aegilops tauschii, Phalaris arundinacea, Amaranthus retroflexus, Chenopodium album, Commelina communis, Sonchus arvensis, Convolvulus arvensis, Cirsium setosum, Solanum nigrum, Acalypha australis, Digitaria sanguinalis, Echinochloa crusgalli, Setaria viridis, Setaria glauca, Leptochloa chinensis, Monochoria vaginalis, Sagittaria trifolia, Scirpus juncoides, Cyperus rotundus, Cyperus iria, Cyperus difformis, Fimbristylis, Portulaca oleracea, Xanthium sibiricum, Pharbitis nil, Conyza japonica, etc.) and major crop seeds (wheat, corn, rice, soybean, cotton, oilseed rape, millet, sorghum, potato, sesame, ricinus, etc.) were placed in plastic pots filled with soil, then covered with 0.5-2 cm of soil, allowed to grow in a good greenhouse environment. After 2 weeks of sowing, the test plants were treated in the 2-3 leaf stage. The tested compounds of the present invention were respectively dissolved in acetone, then added with Tween 80 and 1.5 liter/ha of emulsifiable concentrate of methyl oleate as synergist, diluted with a certain amount of water to obtain a solution with a certain concentration, and sprayed with a spray tower onto the plants. After the application, the plants were cultured for 3 weeks in the greenhouse, and then the experimental results of the weeding were counted. The doses of the used compounds were 500, 250, 125, 60, 15, 7.5 g a.i./ha, and the averages were obtained by repeating for three times.

Conyza japonica = tested on: Conyza japonica
Text: as §1, §2, §3, §4

Beckmannia syzigachne = tested on: Beckmannia syzigachne
Text: as §1, §2, §3, §4

Alopecurus japonicus = tested on: Alopecurus japonicus
Text: as §1, §2, §3, §4

CCC[C@@]1(C(=O)OCC)CC(c2cc(-n3c(=O)n(C)c(=S)n(C)c3=O)c(F)cc2Cl)=NO1 [4(S)]
weeding effect in post-emergence stage, Rorippa indica (activity level) (Rorippa indica; dose 15 g a.i./ha): 5 (Level 5: growth control rate is above 85%)
weeding effect in post-emergence stage, Rorippa indica (activity level) (Rorippa indica; dose 125 g a.i./ha): 5 (Level 5: growth control rate is above 85%)
weeding effect in post-emergence stage, Conyza japonica (activity level) (Conyza japonica; dose 15 g a.i./ha): 5 (Level 5: growth control rate is above 85%)
weeding effect in post-emergence stage, Conyza japonica (activity level) (Conyza japonica; dose 125 g a.i./ha): 5 (Level 5: growth control rate is above 85%)
weeding effect in post-emergence stage, Beckmannia syzigachne (activity level) (Beckmannia syzigachne; dose 15 g a.i./ha): 5 (Level 5: growth control rate is above 85%)
weeding effect in post-emergence stage, Beckmannia syzigachne (activity level) (Beckmannia syzigachne; dose 125 g a.i./ha): 5 (Level 5: growth control rate is above 85%)
weeding effect in post-emergence stage, Alopecurus japonicus (activity level) (Alopecurus japonicus; dose 15 g a.i./ha): 5 (Level 5: growth control rate is above 85%)
weeding effect in post-emergence stage, Alopecurus japonicus (activity level) (Alopecurus japonicus; dose 125 g a.i./ha): 5 (Level 5: growth control rate is above 85%)

CCOC(=O)[C@]1(C(F)(F)F)CC(c2cc(-n3c(=O)n(C)c(=S)n(C)c3=S)c(F)cc2Cl)=NO1 [206(S)]
weeding effect in post-emergence stage, Rorippa indica (activity level) (Rorippa indica; dose 15 g a.i./ha): 5 (Level 5: growth control rate is above 85%)
weeding effect in post-emergence stage, Conyza japonica (activity level) (Conyza japonica; dose 15 g a.i./ha): 5 (Level 5: growth control rate is above 85%)
weeding effect in post-emergence stage, Beckmannia syzigachne (activity level) (Beckmannia syzigachne; dose 15 g a.i./ha): 5 (Level 5: growth control rate is above 85%)
weeding effect in post-emergence stage, Alopecurus japonicus (activity level) (Alopecurus japonicus; dose 15 g a.i./ha): 5 (Level 5: growth control rate is above 85%)

CCOC(=O)C1(CC)CC(c2cc(-n3c(=O)cc(C(F)(F)F)n(C)c3=S)c(F)cc2Cl)=NO1 (racemic) [Compound 229]
weeding effect in post-emergence stage, Rorippa indica (activity level) (Rorippa indica; dose 125 g a.i./ha): 5 (Level 5: growth control rate is above 85%)
weeding effect in post-emergence stage, Conyza japonica (activity level) (Conyza japonica; dose 125 g a.i./ha): 5 (Level 5: growth control rate is above 85%)
weeding effect in post-emergence stage, Beckmannia syzigachne (activity level) (Beckmannia syzigachne; dose 125 g a.i./ha): 5 (Level 5: growth control rate is above 85%)
weeding effect in post-emergence stage, Alopecurus japonicus (activity level) (Alopecurus japonicus; dose 125 g a.i./ha): 5 (Level 5: growth control rate is above 85%)

CCOC(=O)[C@]1(CC)CC(c2cc(-n3c(=S)cc(C(F)(F)F)n(C)c3=O)c(F)cc2Cl)=NO1 [228(S)]
weeding effect in post-emergence stage, Rorippa indica (activity level) (Rorippa indica; dose 125 g a.i./ha): 5 (Level 5: growth control rate is above 85%)
weeding effect in post-emergence stage, Conyza japonica (activity level) (Conyza japonica; dose 125 g a.i./ha): 5 (Level 5: growth control rate is above 85%)
weeding effect in post-emergence stage, Beckmannia syzigachne (activity level) (Beckmannia syzigachne; dose 125 g a.i./ha): 5 (Level 5: growth control rate is above 85%)
weeding effect in post-emergence stage, Alopecurus japonicus (activity level) (Alopecurus japonicus; dose 125 g a.i./ha): 5 (Level 5: growth control rate is above 85%)

CCOC(=O)[C@]1(C(F)(F)F)CC(c2cc(-n3c(=O)cc(C(F)(F)F)n(C)c3=O)c(F)cc2Cl)=NO1 [135(S)]
weeding effect in post-emergence stage, Rorippa indica (activity level) (Rorippa indica; dose 15 g a.i./ha): 5 (Level 5: growth control rate is above 85%)
weeding effect in post-emergence stage, Conyza japonica (activity level) (Conyza japonica; dose 15 g a.i./ha): 5 (Level 5: growth control rate is above 85%)
weeding effect in post-emergence stage, Beckmannia syzigachne (activity level) (Beckmannia syzigachne; dose 15 g a.i./ha): 5 (Level 5: growth control rate is above 85%)
weeding effect in post-emergence stage, Alopecurus japonicus (activity level) (Alopecurus japonicus; dose 15 g a.i./ha): 5 (Level 5: growth control rate is above 85%)

CCOC(=O)C1ON=C(c2cc(-n3c(=O)n(C)c(=S)n(C)c3=O)c(F)cc2Cl)C1C (centres unmarked) [Compound 1-98]
weeding effect in post-emergence stage, Rorippa indica (activity level) (Rorippa indica; dose 15 g a.i./ha): 5 (Level 5: growth control rate is above 85%)
weeding effect in post-emergence stage, Conyza japonica (activity level) (Conyza japonica; dose 15 g a.i./ha): 5 (Level 5: growth control rate is above 85%)
weeding effect in post-emergence stage, Beckmannia syzigachne (activity level) (Beckmannia syzigachne; dose 15 g a.i./ha): 5 (Level 5: growth control rate is above 85%)
weeding effect in post-emergence stage, Alopecurus japonicus (activity level) (Alopecurus japonicus; dose 15 g a.i./ha): 5 (Level 5: growth control rate is above 85%)

CCOC(=O)COCC1(C(=O)OCC)CC(c2cc(-n3c(=O)n(C)c(=S)n(C)c3=O)c(F)cc2Cl)=NO1 (racemic) [Compound 54]
weeding effect in post-emergence stage, Rorippa indica (activity level) (Rorippa indica; dose 125 g a.i./ha): 5 (Level 5: growth control rate is above 85%)
weeding effect in post-emergence stage, Conyza japonica (activity level) (Conyza japonica; dose 125 g a.i./ha): 5 (Level 5: growth control rate is above 85%)
weeding effect in post-emergence stage, Beckmannia syzigachne (activity level) (Beckmannia syzigachne; dose 125 g a.i./ha): 5 (Level 5: growth control rate is above 85%)
weeding effect in post-emergence stage, Alopecurus japonicus (activity level) (Alopecurus japonicus; dose 125 g a.i./ha): 5 (Level 5: growth control rate is above 85%)

CCOC(=O)C1(C)CC(c2cc(-n3c(=O)cc(C(F)(F)F)n(C)c3=O)c(F)cc2Cl)=NO1 (centres unmarked) [Control compound B, reference compound]
weeding effect in post-emergence stage, Rorippa indica (activity level) (Rorippa indica; dose 7.5 g a.i./ha): 2 (Level 2: growth control rate is greater than or equal to 20% and less than 40%)
weeding effect in post-emergence stage, Rorippa indica (activity level) (Rorippa indica; dose 15 g a.i./ha): 3 (Level 3: growth control rate is greater than or equal to 40% and less than 60%)
weeding effect in post-emergence stage, Conyza japonica (activity level) (Conyza japonica; dose 7.5 g a.i./ha): 3 (Level 3: growth control rate is greater than or equal to 40% and less than 60%)
weeding effect in post-emergence stage, Conyza japonica (activity level) (Conyza japonica; dose 15 g a.i./ha): 4 (Level 4: growth control rate is greater than or equal to 60% and less than 85%)
weeding effect in post-emergence stage, Beckmannia syzigachne (activity level) (Beckmannia syzigachne; dose 7.5 g a.i./ha): 2 (Level 2: growth control rate is greater than or equal to 20% and less than 40%)
weeding effect in post-emergence stage, Beckmannia syzigachne (activity level) (Beckmannia syzigachne; dose 15 g a.i./ha): 3 (Level 3: growth control rate is greater than or equal to 40% and less than 60%)
weeding effect in post-emergence stage, Alopecurus japonicus (activity level) (Alopecurus japonicus; dose 7.5 g a.i./ha): 3 (Level 3: growth control rate is greater than or equal to 40% and less than 60%)
weeding effect in post-emergence stage, Alopecurus japonicus (activity level) (Alopecurus japonicus; dose 15 g a.i./ha): 4 (Level 4: growth control rate is greater than or equal to 60% and less than 85%)

CCOC(=O)C1(COC(C)=O)CC(c2cc(-n3c(=O)cc(C(F)(F)F)n(C)c3=O)c(F)cc2Cl)=NO1 (racemic) [Compound 219]
weeding effect in post-emergence stage, Rorippa indica (activity level) (Rorippa indica; dose 15 g a.i./ha): 4 (Level 4: growth control rate is greater than or equal to 60% and less than 85%)
weeding effect in post-emergence stage, Rorippa indica (activity level) (Rorippa indica; dose 125 g a.i./ha): 5 (Level 5: growth control rate is above 85%)
weeding effect in post-emergence stage, Conyza japonica (activity level) (Conyza japonica; dose 125 g a.i./ha): 5 (Level 5: growth control rate is above 85%)
weeding effect in post-emergence stage, Beckmannia syzigachne (activity level) (Beckmannia syzigachne; dose 125 g a.i./ha): 5 (Level 5: growth control rate is above 85%)
weeding effect in post-emergence stage, Alopecurus japonicus (activity level) (Alopecurus japonicus; dose 125 g a.i./ha): 5 (Level 5: growth control rate is above 85%)

Cn1c(=S)n(C)c(=O)n(-c2cc(C3=NOC(C)(C(=O)OCC(F)F)C3)c(Cl)cc2F)c1=O (centres unmarked) [Compound 1-86]
weeding effect in post-emergence stage, Rorippa indica (activity level) (Rorippa indica; dose 15 g a.i./ha): 5 (Level 5: growth control rate is above 85%)
weeding effect in post-emergence stage, Conyza japonica (activity level) (Conyza japonica; dose 15 g a.i./ha): 5 (Level 5: growth control rate is above 85%)
weeding effect in post-emergence stage, Beckmannia syzigachne (activity level) (Beckmannia syzigachne; dose 15 g a.i./ha): 5 (Level 5: growth control rate is above 85%)
weeding effect in post-emergence stage, Alopecurus japonicus (activity level) (Alopecurus japonicus; dose 15 g a.i./ha): 5 (Level 5: growth control rate is above 85%)

CCOC(=O)[C@]1(CF)CC(c2cc(-n3c(=O)cc(C(F)(F)F)n(C)c3=O)c(F)cc2Cl)=NO1 [132(S)]
weeding effect in post-emergence stage, Rorippa indica (activity level) (Rorippa indica; dose 15 g a.i./ha): 5 (Level 5: growth control rate is above 85%)
weeding effect in post-emergence stage, Conyza japonica (activity level) (Conyza japonica; dose 15 g a.i./ha): 5 (Level 5: growth control rate is above 85%)
weeding effect in post-emergence stage, Beckmannia syzigachne (activity level) (Beckmannia syzigachne; dose 15 g a.i./ha): 5 (Level 5: growth control rate is above 85%)
weeding effect in post-emergence stage, Alopecurus japonicus (activity level) (Alopecurus japonicus; dose 15 g a.i./ha): 5 (Level 5: growth control rate is above 85%)

CCOC(=O)C1(CCF)CC(c2cc(-n3c(=O)n(C)c(=S)n(C)c3=O)c(F)cc2Cl)=NO1 (racemic) [Compound 34]
weeding effect in post-emergence stage, Rorippa indica (activity level) (Rorippa indica; dose 15 g a.i./ha): 5 (Level 5: growth control rate is above 85%)
weeding effect in post-emergence stage, Rorippa indica (activity level) (Rorippa indica; dose 125 g a.i./ha): 5 (Level 5: growth control rate is above 85%)
weeding effect in post-emergence stage, Conyza japonica (activity level) (Conyza japonica; dose 15 g a.i./ha): 5 (Level 5: growth control rate is above 85%)
weeding effect in post-emergence stage, Conyza japonica (activity level) (Conyza japonica; dose 125 g a.i./ha): 5 (Level 5: growth control rate is above 85%)
weeding effect in post-emergence stage, Beckmannia syzigachne (activity level) (Beckmannia syzigachne; dose 15 g a.i./ha): 5 (Level 5: growth control rate is above 85%)
weeding effect in post-emergence stage, Beckmannia syzigachne (activity level) (Beckmannia syzigachne; dose 125 g a.i./ha): 5 (Level 5: growth control rate is above 85%)
weeding effect in post-emergence stage, Alopecurus japonicus (activity level) (Alopecurus japonicus; dose 15 g a.i./ha): 5 (Level 5: growth control rate is above 85%)
weeding effect in post-emergence stage, Alopecurus japonicus (activity level) (Alopecurus japonicus; dose 125 g a.i./ha): 5 (Level 5: growth control rate is above 85%)

CC(C)OC(=O)C1(C)CC(c2cc(-n3c(=O)n(C)c(=S)n(C)c3=O)c(F)cc2Cl)=NO1 (centres unmarked) [Compound 1-71]
weeding effect in post-emergence stage, Rorippa indica (activity level) (Rorippa indica; dose 15 g a.i./ha): 5 (Level 5: growth control rate is above 85%)
weeding effect in post-emergence stage, Conyza japonica (activity level) (Conyza japonica; dose 15 g a.i./ha): 5 (Level 5: growth control rate is above 85%)
weeding effect in post-emergence stage, Beckmannia syzigachne (activity level) (Beckmannia syzigachne; dose 15 g a.i./ha): 5 (Level 5: growth control rate is above 85%)
weeding effect in post-emergence stage, Alopecurus japonicus (activity level) (Alopecurus japonicus; dose 15 g a.i./ha): 5 (Level 5: growth control rate is above 85%)
